Among the data in patent US8022206B2 (OSI Pharmaceuticals, LLC, priority 2008, dated 2011) are IC50 values, retold here.

Assay [1] addresses MET (human) (Homo sapiens, UniProt P08581). Kind of assay: MET (human) AlphaScreen kinase assay, Km of ATP. Format: biochemical. The following applies: AlphaScreen, Km of ATP; read-out: Met biochemical IC50. The essentials: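 Human MET at lot-optimised concentration in 50 mM Tris pH 7.4 buffer with 1 mM DTT, compound at 1% DMSO final; enzyme starts the reaction, 60 min at RT.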

Assay [2] concerns the target RON (human) (Homo sapiens, UniProt Q04912). Kind of assay: RON (human) AlphaScreen kinase assay, Km of ATP. Format: biochemical. The following applies: AlphaScreen, Km of ATP; read-out: RON biochemical IC50. The procedure, abridged: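 Detection used PT66 AlphaScreen beads added in Tris pH 7.5/NaCl/EDTA/BSA buffer, read after 1 h incubation. Vehicle-only DMSO wells served as controls.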
(Alpha assays give light when donor and acceptor beads are brought close together.)

By IC50 is commonly meant the concentration that inhibits the measured activity by half.

Chain of RON (human) (Q04912 25-1400): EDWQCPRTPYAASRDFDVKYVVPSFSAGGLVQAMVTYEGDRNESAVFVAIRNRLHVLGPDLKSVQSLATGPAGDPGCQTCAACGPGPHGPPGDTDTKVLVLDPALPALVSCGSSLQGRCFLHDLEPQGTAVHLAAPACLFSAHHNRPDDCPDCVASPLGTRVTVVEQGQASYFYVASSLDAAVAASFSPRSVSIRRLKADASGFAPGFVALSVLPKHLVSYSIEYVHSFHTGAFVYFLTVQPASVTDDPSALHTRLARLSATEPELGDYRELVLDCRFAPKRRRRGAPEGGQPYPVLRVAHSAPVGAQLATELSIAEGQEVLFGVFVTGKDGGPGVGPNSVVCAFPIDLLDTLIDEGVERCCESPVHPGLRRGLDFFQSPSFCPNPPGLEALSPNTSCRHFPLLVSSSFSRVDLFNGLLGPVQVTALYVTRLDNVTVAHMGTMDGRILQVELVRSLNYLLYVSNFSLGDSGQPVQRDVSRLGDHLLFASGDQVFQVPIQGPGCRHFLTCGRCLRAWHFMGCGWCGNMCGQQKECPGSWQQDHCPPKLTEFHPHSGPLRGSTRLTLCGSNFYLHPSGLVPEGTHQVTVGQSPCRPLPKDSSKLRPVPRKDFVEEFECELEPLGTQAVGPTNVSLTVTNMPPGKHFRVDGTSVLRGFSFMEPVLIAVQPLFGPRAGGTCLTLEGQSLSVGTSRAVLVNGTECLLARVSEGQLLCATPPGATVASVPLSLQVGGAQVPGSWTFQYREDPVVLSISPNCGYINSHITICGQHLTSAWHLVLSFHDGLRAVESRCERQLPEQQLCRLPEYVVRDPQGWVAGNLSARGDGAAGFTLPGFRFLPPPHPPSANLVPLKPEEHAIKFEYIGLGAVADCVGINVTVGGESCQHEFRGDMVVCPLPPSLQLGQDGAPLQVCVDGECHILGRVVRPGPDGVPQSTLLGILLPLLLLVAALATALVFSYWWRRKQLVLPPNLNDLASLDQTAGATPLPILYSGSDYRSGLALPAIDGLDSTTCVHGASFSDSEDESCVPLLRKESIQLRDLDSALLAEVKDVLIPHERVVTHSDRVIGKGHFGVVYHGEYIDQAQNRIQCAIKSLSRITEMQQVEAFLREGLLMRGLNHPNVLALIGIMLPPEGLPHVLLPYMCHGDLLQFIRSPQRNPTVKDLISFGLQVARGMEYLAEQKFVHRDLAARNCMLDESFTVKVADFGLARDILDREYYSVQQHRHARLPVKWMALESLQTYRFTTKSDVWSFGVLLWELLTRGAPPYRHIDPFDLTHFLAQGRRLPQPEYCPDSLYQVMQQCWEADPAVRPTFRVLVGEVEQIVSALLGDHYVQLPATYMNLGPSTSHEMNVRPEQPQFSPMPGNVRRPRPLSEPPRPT
Chain of MET (human) (P08581 25-1390): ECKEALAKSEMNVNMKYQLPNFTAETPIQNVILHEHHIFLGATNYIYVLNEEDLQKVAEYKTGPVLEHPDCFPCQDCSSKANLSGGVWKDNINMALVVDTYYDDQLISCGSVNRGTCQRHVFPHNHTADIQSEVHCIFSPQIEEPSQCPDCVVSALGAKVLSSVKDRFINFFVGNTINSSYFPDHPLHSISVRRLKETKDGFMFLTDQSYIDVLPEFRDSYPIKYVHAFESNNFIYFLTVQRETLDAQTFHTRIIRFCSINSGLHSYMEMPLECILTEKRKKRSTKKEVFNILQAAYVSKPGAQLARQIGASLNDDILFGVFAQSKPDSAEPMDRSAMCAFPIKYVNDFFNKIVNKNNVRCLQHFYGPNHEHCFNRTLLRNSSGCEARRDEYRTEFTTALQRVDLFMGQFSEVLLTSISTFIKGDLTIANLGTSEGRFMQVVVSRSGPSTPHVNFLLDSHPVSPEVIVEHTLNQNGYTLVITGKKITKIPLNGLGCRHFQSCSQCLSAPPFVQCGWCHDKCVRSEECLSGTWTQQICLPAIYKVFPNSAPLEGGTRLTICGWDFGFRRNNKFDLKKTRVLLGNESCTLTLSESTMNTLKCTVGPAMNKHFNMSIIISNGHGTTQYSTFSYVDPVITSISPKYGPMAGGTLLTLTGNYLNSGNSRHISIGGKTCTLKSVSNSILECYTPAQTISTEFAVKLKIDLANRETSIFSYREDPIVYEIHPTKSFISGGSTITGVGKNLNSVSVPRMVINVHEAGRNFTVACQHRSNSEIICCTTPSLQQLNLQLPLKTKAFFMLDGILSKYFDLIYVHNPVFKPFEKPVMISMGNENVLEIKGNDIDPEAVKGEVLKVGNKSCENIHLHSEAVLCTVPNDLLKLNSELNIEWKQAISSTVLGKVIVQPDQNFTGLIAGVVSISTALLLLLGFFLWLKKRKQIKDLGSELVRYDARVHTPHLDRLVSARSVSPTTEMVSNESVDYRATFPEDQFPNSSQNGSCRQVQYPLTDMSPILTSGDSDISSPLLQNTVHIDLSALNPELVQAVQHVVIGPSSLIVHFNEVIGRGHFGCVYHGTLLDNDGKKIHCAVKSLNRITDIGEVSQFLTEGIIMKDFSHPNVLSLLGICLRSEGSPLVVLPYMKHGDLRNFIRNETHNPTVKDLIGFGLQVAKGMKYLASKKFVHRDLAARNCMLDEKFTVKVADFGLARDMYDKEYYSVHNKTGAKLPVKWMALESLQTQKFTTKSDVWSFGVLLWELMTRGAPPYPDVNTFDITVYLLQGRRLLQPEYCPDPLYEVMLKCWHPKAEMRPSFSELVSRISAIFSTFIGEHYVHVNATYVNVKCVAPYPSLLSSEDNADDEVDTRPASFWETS

As for `C[C@@H](Oc1c(N)ncc2c(C3=CCN(C(=O)c4ccc[nH]4)CC3)coc12)c1c(Cl)ccc(F)c1Cl` [Example 234, (4-{6-Amino-7-[(R)-1-(2,6-dichloro-3-fluorophenyl)ethoxy]-furo[3,2-c]pyridin-3-yl}-3,6-dihydro-2H-pyridin-1-yl)-(1H-pyrrol-2-yl)-methanone], the IC50 in assay [1] and in assay [2] was 500 to 5000 nM each time.
In the case of `CC(C)OC(=O)N1CC=C(c2coc3c(O[C@H](C)c4c(Cl)ccc(F)c4Cl)c(N)ncc23)CC1` [Example 53, 4-{6-Amino-7-[(R)-1-(2,6-dichloro-3-fluorophenyl)-ethoxy]-furo[3,2-c]pyridin-3-yl}-3,6-dihydro-2H-pyridine-1-carboxylic acid isopropyl ester], the IC50 in assay [1] and in assay [2] was 500 to 5000 nM in each case.
For the compound `C[C@@H](Oc1c(N)ncc2c(C3=CCN(C(=O)C4CCN(C)CC4)CC3)coc12)c1c(Cl)ccc(F)c1Cl` [Example 17, (4-{6-Amino-7-[(R)-1-(2,6-dichloro-3-fluorophenyl)-ethoxy]-furo[3,2-c]pyridin-3-yl}-3,6-dihydro-2H-pyridin-1-yl)-(1-methylpiperidin-4-yl)-methanone], the 50% inhibitory concentration (IC50) in assay [1] and in assay [2] was below 500 nM throughout.
As to `CC(Oc1c(N)ncc2c(-c3cnn(C4CCNCC4)c3)coc12)c1ccccc1F` (centres unmarked) [Example 374, 7-[1-(2-Fluorophenyl)ethoxy]-3-(1-piperidin-4-yl-1H-pyrazol-4-yl)furo[3,2-c]pyridin-6-ylamine], the half-inhibitory concentration (IC50) in assay [1] and in assay [2] was 500 to 5000 nM in each case.
On to `CC(Cc1c(Cl)cccc1Cl)Oc1c(N)ncc2c(-c3cnn(C4CCNCC4)c3)coc12` (centres unmarked) [Example 417, 7-[2-(2,6-Dichlorophenyl)-1-methylethoxy]-3-(1-piperidin-4-yl-1H-pyrazol-4-yl)furo[3,2-c]pyridin-6-ylamine], for which the half-maximal inhibitory concentration (IC50) in assay [1] and in assay [2] was 500 to 5000 nM in each case.
For `C[C@@H](Oc1c(N)ncc2c(-c3cnn(C4CCNCC4)c3)c(C#CC(C)(C)O)oc12)c1c(Cl)ccc(F)c1Cl` [Example 171, 4-[6-Amino-7-[(R)-1-(2,6-dichloro-3-fluorophenyl)ethoxy]-3-(1-piperidin-4-yl-1H-pyrazol-4-yl)-furo[3,2-c]pyridin-2-yl]-2-methylbut-3-yn-2-ol], the IC50 in assay [1] and in assay [2] was below 500 nM in each case.
In the case of `C[C@@H](Oc1c(N)ncc2c(-c3ccc(CN4CCCCC4)s3)coc12)c1c(Cl)ccc(F)c1Cl` [Example 215, 7-[(R)-1-(2,6-Dichloro-3-fluorophenyl)ethoxy]-3-(5-piperidin-1-ylmethylthiophen-2-yl)-furo[3,2-c]pyridin-6-ylamine], the IC50 in assay [1] and in assay [2] was below 500 nM throughout.
On to `CC(C)[C@H](O)C(=O)N1CC=C(c2coc3c(O[C@H](C)c4c(Cl)ccc(F)c4Cl)c(N)ncc23)CC1` [Example 267, (2S)-1-[4-{6-Amino-7-[(1R)-1-(2,6-dichloro-3-fluorophenyl)ethoxy]furo[3,2-c]pyridin-3-yl}-3,6-dihydropyridin-1(2H)-yl]-2-hydroxy-3-methylbutan-1-one], for which the IC50 in assay [1] is 500 to 5000 nM; in assay [2], below 500 nM.
In the case of `C[C@@H](O)C(=O)N1CC=C(c2coc3c(O[C@H](C)c4c(Cl)ccc(F)c4Cl)c(N)ncc23)CC1` [Example 226, (R)-1-(4-{6-Amino-7-[(R)-1-(2,6-dichloro-3-fluorophenyl)ethoxy]-furo[3,2-c]pyridin-3-yl}-3,6-dihydro-2H-pyridin-1-yl)-2-hydroxypropan-1-one], the IC50 in assay [1] and in assay [2] was below 500 nM throughout.
As for `C[C@@H](Oc1c(N)ncc2c(-c3ccc(C(=O)N4CCN(C)CC4)cc3)coc12)c1c(Cl)ccc(F)c1Cl` [Example 75, (4-{6-Amino-7-[(R)-1-(2,6-dichloro-3-fluorophenyl)ethoxy]-furo[3,2-c]pyridin-3-yl}phenyl)-(4-methylpiperazin-1-yl)methanone], the results for the half-maximal inhibitory concentration (IC50) in assay [1] and in assay [2] were below 500 nM and 500 to 5000 nM, respectively.
The corresponding values for `C[C@@H](Oc1c(N)ncc2c(-c3cc(C(=O)NC(C)(C)C)cs3)coc12)c1c(Cl)ccc(F)c1Cl` [Example 331, 5-{6-Amino-7-[(R)-1-(2,6-dichloro-3-fluorophenyl)ethoxy]furo[3,2-c]pyridin-3-yl}thiophene-3-carboxylic acid tert-butylamide] are 500 to 5000 nM and 5000 to 20000 nM.
The corresponding values for `C[C@@H](Oc1c(N)ncc2c(C3=CCN(C4CN(C(N)=O)C4)CC3)coc12)c1c(Cl)ccc(F)c1Cl` [Example 324, 3-(4-{6-Amino-7-[(R)-1-(2,6-dichloro-3-fluorophenyl)ethoxy]furo[3,2-c]pyridin-3-yl}-3,6-dihydro-2H-pyridin-1-yl)azetidine-1-carboxamide] are below 500 nM and below 500 nM.
The corresponding values for `C[C@@H](Oc1c(N)ncc2c(-c3csc(C(=O)N(C)C)c3)coc12)c1c(Cl)ccc(F)c1Cl` [Example 317, 4-{6-Amino-7-[(R)-1-(2,6-dichloro-3-fluorophenyl)ethoxy]furo[3,2-c]pyridin-3-yl}thiophene-2-carboxylic acid Dimethylamide] are 500 to 5000 nM and 500 to 5000 nM.
Regarding `C[C@@H](Oc1c(N)ncc2c(-c3cnn(C4CCN(C=O)CC4)c3)coc12)c1c(Cl)ccc(F)c1Cl` [Example 277, 4-(4-{6-Amino-7-[(1R)-1-(2,6-dichloro-3-fluorophenyl)ethoxy]furo[3,2-c]pyridin-3-yl}-1H-pyrazol-1-yl)piperidine-1-carbaldehyde], the half-inhibitory concentration (IC50) in assay [1] and in assay [2] was 500 to 5000 nM each time.
Consider `COc1cc(OC)cc(-c2coc3c(O[C@H](C)c4c(Cl)ccc(F)c4Cl)c(N)ncc23)c1` [Example 81, 7-[(R)-1-(2,6-Dichloro-3-fluorophenyl)ethoxy]-3-(3,5-dimethoxyphenyl)furo[3,2-c]pyridin-6-ylamine], for which the concentration for half-maximal inhibition (IC50) in assay [1] and in assay [2] was 500 to 5000 nM each time.
Regarding `Cc1c(F)cccc1C(C)Oc1c(N)ncc2c(-c3cnn(C4CCNCC4)c3)coc12` (centres unmarked) [Example 380, 7-[1-(3-Fluoro-2-methylphenyl)ethoxy]-3-(1-piperidin-4-yl-1H-pyrazol-4-yl)furo[3,2-c]pyridin-6-ylamine], the IC50 in assay [1] is below 500 nM; in assay [2], 500 to 5000 nM.
In the same order, the values of `CC(Cc1ccc(Cl)cc1)Oc1c(N)ncc2c(-c3cnn(C4CCNCC4)c3)coc12` (centres unmarked) [Example 370, 7-[2-(4-Chlorophenyl)-1-methylethoxy]-3-(1-piperidin-4-yl-1H-pyrazol-4-yl)furo[3,2-c]pyridin-6-ylamine] are below 500 nM and 500 to 5000 nM.
On to `CC(Cc1c(F)cccc1F)Oc1c(N)ncc2c(-c3cnn(C4CCNCC4)c3)coc12` (centres unmarked) [Example 418, 7-[2-(2,6-Difluorophenyl)-1-methylethoxy]-3-(1-piperidin-4-yl-1H-pyrazol-4-yl)furo[3,2-c]pyridin-6-ylamine], for which the results for the IC50 in assay [1] and in assay [2] were below 500 nM and 500 to 5000 nM, respectively.
As for `C[C@@H](Oc1c(N)ncc2c(C3=CCN(C(=O)[C@@H](N)Cc4cnc[nH]4)CC3)coc12)c1c(Cl)ccc(F)c1Cl` [Example 263, (2S)-2-Amino-1-[4-{6-amino-7-[(1R)-1-(2,6-dichloro-3-fluoro-phenyl)ethoxy]furo[3,2-c]pyridin-3-yl}-3,6-dihydropyridin-1(2H)-yl]-3-(1H-imidazol-5-yl)propan-1-one], the IC50 in assay [1] and in assay [2] was below 500 nM throughout.
